Square brackets hold non-standard residues; d marks the D form. Ends that are not written are not given here. Oic = O=C(O)[C@@H]1C[C@@H]2CCCC[C@@H]2N1; Tic = O=C(O)[C@@H]1Cc2ccccc2CN1

The assay concerns the target T1, mouse GzmA (mGzmA) (Mus musculus, UniProt P11032).
T1 construct: CSB-EP010081MO for active, mature form; purchased Cusabio CSB-EP010081MO
T1 sequence (P11032 29-260): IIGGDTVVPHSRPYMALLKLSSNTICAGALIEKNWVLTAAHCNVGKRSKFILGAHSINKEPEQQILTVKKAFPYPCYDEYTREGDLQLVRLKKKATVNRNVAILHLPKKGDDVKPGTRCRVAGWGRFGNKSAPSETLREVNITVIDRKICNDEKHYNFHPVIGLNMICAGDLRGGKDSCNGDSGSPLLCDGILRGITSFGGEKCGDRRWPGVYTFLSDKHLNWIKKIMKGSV
As to the kind of experiment: In-gel fluorescence labeling of mGzmA. It counts as biochemical. Particulars: mGzmA 1 μM, 24 h, 37 °C; for Labeling of mGzmA (in-gel Cy5 fluorescence): probe 200 nM or 1 μM. How it is done:
Figure 3 GzmA ABPs covalently and competitively label active human and mouse GzmA. […] Recombinant hGzmA (100 nM) was incubated with varying concentrations of each ABP at 37 °C. B) Competitive labeling of hGzmA. Recombinant hGzmA (100 nM) was preincubated with covalent inhibitors 1 or 2 (5 μM) for 2 h, followed by labeling with ABPs 3 –5 (50 nM) for 2 h at 37 °C. Note: Pro‐form of hGzmA (the first lane) is not effectively stained by SYPRO‐Ruby. C) Structure of qABP 6. D) Quenched natures of 5 and 6. […] F) Labeling of mGzmA (1 μM) with 5 and 6 (1 μM, 24 h, 37 °C). Protein samples were analyzed by SDS‐PAGE and in‐gel fluorescence scanning for Cy5 signal and SYPRO Ruby staining.
Sulfo-Cy5 N N P O 1 µM 100 nM
7 HN NH2 In-gel fluorescence: […]
mGzmA In-gel fluorescence: mGzmA In-gel fluorescence:
Supplementary Figure 1. (A) Chemical structure of qABP 7. (B) Labeling of mGzmA (1 µM, 24 h, 37 °C) and hGzmA (100 nM, 2 h, 37 °C) by 1 µM or 100 nM of 5, 6, and 7, respectively. (C) Labeling of mGzmA (1 µM, 24 h, 37 °C) by 200 nM of 5, 6, and 7. […] Protein samples were analyzed by SDS-PAGE and in-gel fluorescence scanning for Cy5 signal. […]
Briefly, hGzmA (50 nM) was incubated with either inhibitor 1 or 2 (200 nM), and GzmA fluorogenic substrate […] (100 µM) in 50 mM Tris, 150 mM NaCl, 0.01% Triton X-100 (pH 8) for 15 hr at 37 °C. Recorded fluorescence at Ex/Em: 380/460 nm for residual GzmA […]
Cat. No. CRL-2570) and 4T1 (ATCC Cat. No. CRL-2539) cells were cultured in RPMI supplemented with 10% fetal bovine serum (FBS), 1% penicillin/streptomycin (PS), and 2 mM L-glutamine, while HEK293T and MDA-MB-231 cells (ATCC Cat. No. HTB-26) were cultured in DMEM supplemented likewise as described above. […] The supernatant was collected, and protein concentration was measured using a Pierce BCA protein assay. […]
C. In-gel fluorescence imaging […]
Conditions for probe/inhibitor treatment for in-gel fluorescence analysis: Inhibitors and probes were incubated with active (or pro-) GzmA followed by treatment with 4X SDS reducing sample buffer. […]

Regarding [Tic]G[Oic]R [compound 6], the “Labeling of mGzmA (in-gel Cy5 fluorescence)” value was “efficiently (and slightly more strongly than 5) labeled”. Besides, where the note is “probe 1, 0.5, 0.2 µM, in-gel fluorescence”, the “Concentration dependence of labeling of mGzmA” value is on record as “concentration‐dependent labeling of mGzmA”.

For GFFR [compound 7], the “Labeling of mGzmA (in-gel Cy5 fluorescence)” value is “lower labeling efficiency for both hGzmA and mGzmA compared with probes 5 and 6”.

Source of the values: paper PMC12703428, “Development of Granzyme A Turn‐ON Fluorescent Activity‐Based Probes” (Chembiochem, 2025).
